Results reported in patent US20250129070A1, “BIFUNCTIONAL ANDROGEN RECEPTOR COMPOUNDS” (priority 2023, published 2025).

Columns and labels:
[1] = tested on: AR / CBP ternary complex; assay: Ternary complex formation assay (sandwich ELISA, AR capture / CBP detection) in VCaP cell lysates; assay type: cell-based; conditions: 1.5 hours treatment, sandwich ELISA (AR capture, CBP or p300 detection)
Method in brief: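 VCaP cells (50K/well, 5% charcoal-stripped FBS, ≥3 days) treated with bifunctional compound for 1.5 h, then lysed 30 min at 4 °C. AR captured on anti-AR (AR 441) plates; bound CBP or p300 detected by rabbit mAb plus HRP secondary. QuantaRed chemifluorescence read at ex 570/em 585, immediately and at 5 and 15 min.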

[2] = tested on: VCaP cells; assay: VCaP growth inhibition assay; assay type: cell-based; conditions: 30 pM R1881, 9 days, CTG
Procedure: VCaP cells (ATCC Cat #CRL-2876) are plated at 1×10^4 cells per well of a white plastic 96-well cluster plate (Thermo Scientific Nunc Cat #165306) in 100 uL phenol red-free DMEM (Gibco Cat #21063-029) media with 5% CSS (Omega Scientific Cat #FB-04). Cluster plates are returned to the incubator (37*C/5% CO2) for 72 hours prior to treatment. Just prior to treatment, 100 μL of phenol red-free DMEM/5% CSS and […] R1881 (Sigma Cat #R0908-10 mg) was added to each well of the cluster plates (Final R1881 concentration=30 pM). Compounds (200×) were added to each well in a volume of 1 uL, with serial dilutions (1:5) from 20 uM to 2 pM (final concentrations in well are 100 nM to 10 fM). Cluster plates are returned to the incubator for 9 days.
After the 9-day treatment period, media was removed from the cluster plates by inversion and 100 uL room temperature CTG reagent (Promega Cat #G7573) is added to each well. The cluster plates are placed on a shaker and incubated at room temperature for 20 minutes. Following this shaking/incubation, cluster plates are read on a luminometer (BMG ClarioStar). IC50 values are obtained by graphing the RLU data vs. compound concentration with nonlinear regression 4-parameter logistic curves (GraphPad Prism).

COc1cc(OC2C(C)(C)C(NC(=O)c3ccc(N4CC5(CCC(C6CCC(n7nc(N8CCCc9cc(-c%10cnn(C)c%10)c(C(F)F)cc98)c8c7CCN(C(C)=O)C8)CC6)CC5)C4)cc3)C2(C)C)ccc1C#N (stereo not drawn) [Compound 380, 4-[7-[4-[5-acetyl-3-[7-(difluoromethyl)-6-(1-methylpyrazol-4-yl)-3,4-dihydro-2H-quinolin-1-yl]-6,7-dihydro-4Hpyrazolo[4,3-c]pyridin-1-yl]cyclohexyl]-2-azaspiro[3.5]nonan-2-yl]-N-[3-(4-cyano-3-methoxy-phenoxy)-2,2,4,4-tetramethyl-cyclobutyl]benzamide]
EC50 [1]: 1 to 10 nM
IC50 [2]: 1 to 100 nM

CC(=O)N1CCc2c(c(-c3cccc4cc(-c5ccc(CC6CC7(C6)CN(c6ncc(C(=O)NC8C(C)(C)C(Oc9ccc(C#N)c(Cl)c9)C8(C)C)cn6)C7)nc5)ncc34)nn2C2CCOCC2)C1 (stereo not drawn) [Compound 228, 2-[6-[[5-[8-(5-acetyl-1-tetrahydropyran-4-yl-6,7-dihydro-4H-pyrazolo[4,3-c]pyridin-3-yl)-3-isoquinolyl]-2-pyridyl]methyl]-2-azaspiro[3.3]heptan-2-yl]-N-[3-(3-chloro-4-cyano-phenoxy)-2,2,4,4-tetramethyl-cyclobutyl]pyrimidine-5-carboxamide]
EC50 [1]: 1 to 10 nM
IC50 [2]: 0.1 to 1 nM

C[C@@H]1CC(=O)Nc2cccc(-c3ccc4c(c3)c(-c3cnn(C)c3)nn4CC3CCN(c4ncc(C(=O)NC5C(C)(C)C(Oc6ccc(C#N)c(Cl)c6)C5(C)C)cn4)CC3)c2N1 (stereo partly drawn) [Compound 58, N-[3-(3-chloro-4-cyano-phenoxy)-2,2,4,4-tetramethyl-cyclobutyl]-2-[4-[[5-[(4R)-4-methyl-2-oxo-1,3,4,5-tetrahydro-1,5-benzodiazepin-6-yl]-3-(1-methylpyrazol-4-yl)indazol-1-yl]methyl]-1-piperidyl]pyrimidine-5-carboxamide]
EC50 [1]: > 100 nM
IC50 [2]: > 100 nM

CC(=O)N1CCc2c(c(Nc3ccc(-c4cnn(C)c4)cc3F)nn2CCOC2CCN(c3ncc(C(=O)NC4C(C)(C)C(Oc5ccc(C#N)c(Cl)c5)C4(C)C)cn3)CC2)C1 (stereo not drawn) [Compound 2, 2-[4-[2-[5-acetyl-3-[2-fluoro-4-(1-methylpyrazol-4-yl)anilino]-6,7-dihydro-4H-pyrazolo[4,3-c]pyridin-1-yl]ethoxy]-1-piperidyl]-N-[3-(3-chloro-4-cyano-phenoxy)-2,2,4,4-tetramethyl-cyclobutyl]pyrimidine-5-carboxamide]
IC50 [2]: 1 to 100 nM

CC(=O)N1CCc2c(c(N3CCCc4cc(-c5cnn(C)c5)c(C(F)F)cc43)nn2C2CCC3(CC2)CCN(c2ccc4c(n2)CN(C2C(C)(C)C(Oc5ccc(C#N)c(Cl)c5)C2(C)C)C4=O)CC3)C1 (stereo not drawn) [Compound 298, 4-[3-[2-[9-[5-acetyl-3-[7-(difluoromethyl)-6-(1-methylpyrazol-4-yl)-3,4-dihydro-2H-quinolin-1-yl]-6,7-dihydro-4H-pyrazolo[4,3-c]pyridin-1-yl]-3-azaspiro [5.5]undecan-3-yl]-5-oxo-7H-pyrrolo[3,4-b]pyridin-6-yl]-2,2,4,4-tetramethyl-cyclobutoxy]-2-chloro-benzonitrile]
IC50 [2]: > 100 nM

COc1cc(OC2C(C)(C)C(NC(=O)c3ccc(N4CCC(N5CCC(n6cc(-c7cc8cccc(-c9nn(C%10CCOCC%10)c%10c9CN(C(C)=O)CC%10)c8cn7)cn6)CC5)CC4)cc3)C2(C)C)ccc1C#N (stereo not drawn) [Compound 270, 4-[4-[4-[4-[8-(5-acetyl-1-tetrahydropyran-4-yl-6,7-dihydro-4H-pyrazolo[4,3-c]pyridin-3-yl)-3-isoquinolyl]pyrazol-1-yl]-1-piperidyl]-1-piperidyl]-N-[3-(4-cyano-3-methoxy-phenoxy)-2,2,4,4-tetramethylcyclobutyl]benzamide]
IC50 [2]: 0.1 to 1 nM

COc1cc(OC2C(C)(C)C(NC(=O)c3ccc(N4CCC5(CC4)CCN(c4ccc(-c6cc7cccc(-c8nn(C9CCOCC9)c9c8CN(C(C)=O)CC9)c7cn6)cn4)CC5)cc3)C2(C)C)ccc1C#N (stereo not drawn) [Compound 266, 4-[3-[5-[8-(5-acetyl-1-tetrahydropyran-4-yl-6,7-dihydro-4H-pyrazolo[4,3-c]pyridin-3-yl)-3-isoquinolyl]-2-pyridyl]-3,9-diazaspiro[5.5]undecan-9-yl]-N-[3-(4-cyano-3-methoxy-phenoxy)-2,2,4,4-tetramethyl-cyclobutyl]benzamide]
IC50 [2]: 0.1 to 1 nM

COc1cc(OC2C(C)(C)C(NC(=O)c3ccc(N4CCC(N5CCC6(CCC(n7nc(N8CCCc9cc(-c%10cnn(C)c%10)c(C(F)F)cc98)c8c7CCN(C(C)=O)C8)CC6)CC5)CC4)cc3)C2(C)C)ccc1C#N (stereo not drawn) [Compound 300, 4-[4-[9-[5-acetyl-3-[7-(difluoromethyl)-6-(1-methylpyrazol-4-yl)-3,4-dihydro-2H-quinolin-1-yl]-6,7-dihydro-4H-pyrazolo[4,3-c]pyridin-1-yl]-3-azaspiro[5.5]undecan-3-yl]-1-piperidyl]-N-[3-(4-cyano-3-methoxy-phenoxy)-2,2,4,4-tetramethyl-cyclobutyl]benzamide]
IC50 [2]: ≤ 0.1 nM

CC(=O)N1CCc2c(c(Nc3ccc(-c4cnn(C)c4)cc3F)nn2C2CCN(CCC3CCN(c4ncc(C(=O)NC5C(C)(C)C(Oc6ccc(C#N)c(Cl)c6)C5(C)C)cn4)CC3)CC2)C1 (stereo not drawn) [Compound 168, 2-[4-[2-[4-[5-acetyl-3-[2-fluoro-4-(1-methylpyrazol-4-yl)anilino]-6,7-dihydro-4H-pyrazolo[4,3-c]pyridin-1-yl]-1-piperidyl]ethyl]-1-piperidyl]-N-[3-(3-chloro-4-cyano-phenoxy)-2,2,4,4-tetramethyl-cyclobutyl]pyrimidine-5-carboxamide]
IC50 [2]: 0.1 to 1 nM

CC(=O)N1CCc2c(c(N3CCCc4cc(-c5cnn(C)c5)c(C(F)F)cc43)nn2C2CCN(C3CCN(c4ccc5c(n4)CN(C4C(C)(C)C(Oc6ccc(C#N)c(Cl)c6)C4(C)C)C5=O)CC3)CC2)C1 (stereo not drawn) [Compound 297, 4-[3-[2-[4-[4-[5-acetyl-3-[7-(difluoromethyl)-6-(1-methylpyrazol-4-yl)-3,4-dihydro-2H-quinolin-1-yl]-6,7-dihydro-4H-pyrazolo[4,3-c]pyridin-1-yl]-1-piperidyl]-1-piperidyl]-5-oxo-7H-pyrrolo[3,4-b]pyridin-6-yl]-2,2,4,4-tetramethyl-cyclobutoxy]-2-chloro-benzonitrile]
IC50 [2]: 1 to 100 nM

CC(=O)N1CCc2c(c(N3CCCc4cc(-c5cnn(C)c5)c(C(F)F)cc43)nn2CCN2CCN(c3ncc(C(=O)NC4C(C)(C)C(Oc5ccc(C#N)c(Cl)c5)C4(C)C)cn3)CC2)C1 (stereo not drawn) [Compound 52, 2-[4-[2-[5-acetyl-3-[7-(difluoromethyl)-6-(1-methylpyrazol-4-yl)-3,4-dihydro-2H-quinolin-1-yl]-6,7-dihydro-4H-pyrazolo[4,3-c]pyridin-1-yl]ethyl]piperazin-1-yl]-N-[3-(3-chloro-4-cyano-phenoxy)-2,2,4,4-tetramethyl-cyclobutyl]pyrimidine-5-carboxamide]
IC50 [2]: 0.1 to 1 nM

CC(=O)N1CCc2c(c(Nc3ccc(-c4cnn(C)c4)cc3F)nn2C2CN(CCN3CCN(c4ncc(C(=O)NC5C(C)(C)C(Oc6ccc(C#N)c(Cl)c6)C5(C)C)cn4)CC3)C2)C1 (stereo not drawn) [Compound 164, 2-[4-[2-[3-[5-acetyl-3-[2-fluoro-4-(1-methylpyrazol-4-yl)anilino]-6,7-dihydro-4H-pyrazolo[4,3-c]pyridin-1-yl]azetidin-1-yl]ethyl]piperazin-1-yl]-N-[3-(3-chloro-4-cyano-phenoxy)-2,2,4,4-tetramethyl-cyclobutyl]pyrimidine-5-carboxamide]
IC50 [2]: ≤ 0.1 nM
